Laboratory results from ChEMBL document CHEMBL3525920, “CYP4F enzymes are responsible for the elimination of fingolimod (FTY720), a novel treatment of relapsing multiple sclerosis” (Drug Metab Dispos, 2011).

Key:
Liver microsome [1] = test: Drug metabolism in human liver microsomes assessed as total metabolite formation at 1 to 50 uM after 20 mins by HPLC-RA analysis in presence of CYP3A4 mechanism-based inhibitor TAO and NADPH; type: ADME
Liver microsome [2] = test: Drug metabolism in human liver microsomes assessed as total metabolite formation at 1 to 50 uM after 20 mins by HPLC-RA analysis in presence of CYP2C8 inhibitor paclitaxel; type: ADME
Cytochrome P450 3A5 = Cytochrome P450 3A5 (Homo sapiens, UniProt P20815); test: Activity at CYP3A5 in human liver microsomes isolated from donors assessed as metabolite formation after 24 mins by HPLC-RA analysis; type: ADME; conditions: 0.4 h
Cytochrome P450 2C8 = Cytochrome P450 2C8 (Homo sapiens, UniProt P10632); test: Activity at human recombinant CYP2C8 expressed in baculovirus-infected BTI-TN-5B1-4 insect cell microsomes assessed as metabolite formation at 5 to 100 uM after 30 mins by HPLC-RA analysis; type: ADME; conditions: bti-tn-5b1-4, 0.5 h
Cytochrome P450 2E1 = Cytochrome P450 2E1 (Homo sapiens, UniProt P05181); test: Activity at CYP2E1 in human liver microsomes isolated from donors assessed as metabolite formation after 24 mins by HPLC-RA analysis; type: ADME; conditions: 0.4 h
Cytochrome P450 3A4 = Cytochrome P450 3A4 (Homo sapiens, UniProt P08684); test: Activity at human recombinant CYP3A4 expressed in baculovirus-infected BTI-TN-5B1-4 insect cell microsomes assessed as metabolite formation at 5 to 100 uM after 30 mins by HPLC-RA analysis; type: ADME; conditions: bti-tn-5b1-4, 0.5 h
Cytochrome P450 2C18 = Cytochrome P450 2C18 (Homo sapiens, UniProt P33260); test: Activity at human recombinant CYP2C18 expressed in baculovirus-infected BTI-TN-5B1-4 insect cell microsomes assessed as metabolite formation at 5 to 100 uM after 30 mins by HPLC-RA analysis; type: ADME; conditions: bti-tn-5b1-4, 0.5 h
[3] = Retention time of the compound by long gradient-based HPLC-RA analysis; type: physicochemical
Cytochrome P450 2C19 = Cytochrome P450 2C19 (Homo sapiens, UniProt P33261); test: Activity at human recombinant CYP2C19 expressed in baculovirus-infected BTI-TN-5B1-4 insect cell microsomes assessed as metabolite formation at 5 to 100 uM after 30 mins by HPLC-RA analysis; type: ADME; conditions: bti-tn-5b1-4, 0.5 h
Cytochrome P450 4A11 = Cytochrome P450 4A11 (Homo sapiens, UniProt Q02928); test: Activity at human recombinant CYP4A11 expressed in baculovirus-infected BTI-TN-5B1-4 insect cell microsomes assessed as metabolite formation at 5 to 100 uM after 30 mins by HPLC-RA analysis; type: ADME; conditions: bti-tn-5b1-4, 0.5 h
[4] = Activity at CYP4F in human liver microsomes assessed as intrinsic clearance for metabolite formation after 15 mins measured per mg protein by Eadie-Hofstee plot analysis; type: ADME; conditions: 0.25 h
Liver microsome [5] = test: Drug metabolism in human liver microsomes assessed as total metabolite formation at 1 to 50 uM after 20 mins by HPLC-RA analysis in presence of CYP3A4 inhibitor ketoconazole; type: ADME
Liver microsome [6] = test: Drug metabolism in human liver microsomes assessed as metabolite formation at 50 uM treated 15 mins after antibody addition measured after 20 mins by HPLC-RA analysis in presence of CYP4F2-specific polyclonal antibody; type: ADME
Cytochrome P450 4F2 = target: T1, Cytochrome P450 4F2 (Homo sapiens, UniProt P78329); test: Activity at human recombinant CYP4F2 expressed in baculovirus-infected BTI-TN-5B1-4 insect cell microsomes assessed as intrinsic clearance for metabolite formation after 15 mins measured per nmol of P450 by Eadie-Hofstee plot analysis; type: ADME; conditions: bti-tn-5b1-4, 0.25 h
T1 sequence (P78329 whole entry): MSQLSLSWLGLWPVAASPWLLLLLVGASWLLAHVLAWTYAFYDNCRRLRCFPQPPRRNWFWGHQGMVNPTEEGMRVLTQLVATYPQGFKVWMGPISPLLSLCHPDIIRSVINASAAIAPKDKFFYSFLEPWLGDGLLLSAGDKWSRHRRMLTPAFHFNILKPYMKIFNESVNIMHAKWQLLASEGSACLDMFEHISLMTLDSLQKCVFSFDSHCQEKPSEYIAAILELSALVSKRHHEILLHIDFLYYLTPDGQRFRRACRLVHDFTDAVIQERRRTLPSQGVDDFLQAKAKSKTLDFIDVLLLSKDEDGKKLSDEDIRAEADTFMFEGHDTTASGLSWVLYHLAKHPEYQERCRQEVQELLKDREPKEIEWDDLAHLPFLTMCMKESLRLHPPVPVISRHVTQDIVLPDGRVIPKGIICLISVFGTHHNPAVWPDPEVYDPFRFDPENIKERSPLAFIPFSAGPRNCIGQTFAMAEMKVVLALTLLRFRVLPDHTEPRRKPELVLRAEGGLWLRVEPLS

Cytochrome P450 4F12 [7] = target: T2, Cytochrome P450 4F12 (Homo sapiens, UniProt Q9HCS2); test: Activity at human recombinant CYP4F12 expressed in baculovirus-infected BTI-TN-5B1-4 insect cell microsomes at 10 uM by HPLC-RA analysis in presence of CYP4F2 and CYP4F12 inhibitor ketoconazole; type: ADME; conditions: bti-tn-5b1-4, 10 µM
[8] = Retention time of the compound by symmetry C18 column based LC-MS analysis; type: physicochemical
[9] = Drug metabolism in human liver cytosol assessed as metabolite formation by HPLC-RA analysis; type: ADME, tissue-based
[10] = Activity at CYP4A in human liver microsomes assessed as metabolite formation after 24 hrs by HPLC-RA analysis; type: ADME
Cytochrome P450 1A2 = Cytochrome P450 1A2 (Homo sapiens, UniProt P05177); test: Activity at human recombinant CYP1A2 expressed in baculovirus-infected BTI-TN-5B1-4 insect cell microsomes assessed as metabolite formation at 5 to 100 uM after 30 mins by HPLC-RA analysis; type: ADME; conditions: bti-tn-5b1-4, 0.5 h
Cytochrome P450 2C9 = Cytochrome P450 2C9 (Homo sapiens, UniProt P11712); test: Activity at CYP2C9 in human liver microsomes isolated from donors assessed as metabolite formation after 24 mins by HPLC-RA analysis; type: ADME; conditions: 0.4 h
Cytochrome P450 3A7 = Cytochrome P450 3A7 (Homo sapiens, UniProt P24462); test: Activity at human recombinant CYP3A7 expressed in baculovirus-infected BTI-TN-5B1-4 insect cell microsomes assessed as metabolite formation at 5 to 100 uM after 30 mins by HPLC-RA analysis; type: ADME; conditions: bti-tn-5b1-4, 0.5 h
Liver microsome [11] = test: Drug metabolism in human liver microsomes assessed as metabolite M12 (2-amino-2-(4-(8-hydroxyoctyl)phenethyl)propane-1,3-diol) formation at 20 uM after 30 mins by HPLC-RA analysis in presence of NADPH; type: ADME; conditions: 0.5 h
Liver microsome [12] = test: Drug metabolism in human liver microsomes assessed as total metabolite formation at 1 to 50 uM after 20 mins by HPLC-RA analysis in presence of CYP2D6 inhibitor quinidine; type: ADME
Liver microsome [13] = test: Drug metabolism in human liver microsomes assessed as total metabolite formation at 1 to 50 uM after 20 mins by HPLC-RA analysis in presence of CYP2C9 inhibitor sulfaphenazole; type: ADME
[14] = Activity at FMO in human liver microsomes isolated from donors assessed as metabolite formation after 24 mins by HPLC-RA analysis; type: ADME; conditions: 0.4 h
Cytochrome P450 4F12 [15] = target: T2, Cytochrome P450 4F12; test: Activity at human recombinant CYP4F12 expressed in baculovirus-infected BTI-TN-5B1-4 insect cell microsomes assessed as metabolite formation at 5 to 100 uM after 30 mins by HPLC-RA analysis; type: ADME; conditions: bti-tn-5b1-4, 0.5 h

T2 sequence (Q9HCS2 whole entry): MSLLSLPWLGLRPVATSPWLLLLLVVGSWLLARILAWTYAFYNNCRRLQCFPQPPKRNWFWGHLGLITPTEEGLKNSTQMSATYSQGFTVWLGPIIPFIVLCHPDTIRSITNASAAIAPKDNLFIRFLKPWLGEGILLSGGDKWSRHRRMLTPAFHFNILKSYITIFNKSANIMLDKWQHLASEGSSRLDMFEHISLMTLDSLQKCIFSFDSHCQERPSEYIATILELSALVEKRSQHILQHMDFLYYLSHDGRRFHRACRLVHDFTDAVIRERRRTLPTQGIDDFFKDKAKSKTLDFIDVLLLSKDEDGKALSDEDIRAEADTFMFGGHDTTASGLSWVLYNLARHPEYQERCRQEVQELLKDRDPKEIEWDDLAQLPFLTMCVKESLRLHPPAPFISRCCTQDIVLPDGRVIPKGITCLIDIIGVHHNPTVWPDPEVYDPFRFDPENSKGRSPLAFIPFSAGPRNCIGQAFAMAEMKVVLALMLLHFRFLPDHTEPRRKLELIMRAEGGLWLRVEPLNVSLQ
Sequence of Cytochrome P450 3A4 (P08684 whole entry): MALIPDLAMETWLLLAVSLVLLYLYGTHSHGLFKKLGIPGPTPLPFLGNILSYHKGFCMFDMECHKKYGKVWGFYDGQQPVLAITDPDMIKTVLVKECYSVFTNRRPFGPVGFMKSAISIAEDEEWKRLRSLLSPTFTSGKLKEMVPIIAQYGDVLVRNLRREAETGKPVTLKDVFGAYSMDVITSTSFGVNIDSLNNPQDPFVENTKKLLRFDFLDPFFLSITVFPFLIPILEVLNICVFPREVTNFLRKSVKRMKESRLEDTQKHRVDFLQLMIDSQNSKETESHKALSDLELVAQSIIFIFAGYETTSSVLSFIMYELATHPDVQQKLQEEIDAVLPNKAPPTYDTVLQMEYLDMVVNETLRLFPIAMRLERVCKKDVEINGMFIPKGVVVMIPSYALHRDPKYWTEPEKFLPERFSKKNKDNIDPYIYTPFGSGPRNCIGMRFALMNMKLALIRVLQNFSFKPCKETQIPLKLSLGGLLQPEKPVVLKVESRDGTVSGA
Sequence of Cytochrome P450 2C9 (P11712 whole entry): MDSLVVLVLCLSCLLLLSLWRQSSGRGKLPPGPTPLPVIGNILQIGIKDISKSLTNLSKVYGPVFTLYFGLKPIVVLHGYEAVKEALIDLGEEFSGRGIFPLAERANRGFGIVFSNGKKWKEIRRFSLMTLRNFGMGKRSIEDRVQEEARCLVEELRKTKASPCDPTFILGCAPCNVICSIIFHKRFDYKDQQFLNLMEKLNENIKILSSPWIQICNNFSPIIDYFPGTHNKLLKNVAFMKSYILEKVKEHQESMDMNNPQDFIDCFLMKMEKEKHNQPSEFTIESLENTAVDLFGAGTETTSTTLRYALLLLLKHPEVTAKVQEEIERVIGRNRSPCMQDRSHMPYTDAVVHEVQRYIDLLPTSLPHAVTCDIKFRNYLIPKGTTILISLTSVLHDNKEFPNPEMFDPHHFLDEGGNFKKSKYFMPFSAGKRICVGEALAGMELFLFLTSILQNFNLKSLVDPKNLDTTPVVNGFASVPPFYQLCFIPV
Sequence of Cytochrome P450 2C19 (P33261 whole entry): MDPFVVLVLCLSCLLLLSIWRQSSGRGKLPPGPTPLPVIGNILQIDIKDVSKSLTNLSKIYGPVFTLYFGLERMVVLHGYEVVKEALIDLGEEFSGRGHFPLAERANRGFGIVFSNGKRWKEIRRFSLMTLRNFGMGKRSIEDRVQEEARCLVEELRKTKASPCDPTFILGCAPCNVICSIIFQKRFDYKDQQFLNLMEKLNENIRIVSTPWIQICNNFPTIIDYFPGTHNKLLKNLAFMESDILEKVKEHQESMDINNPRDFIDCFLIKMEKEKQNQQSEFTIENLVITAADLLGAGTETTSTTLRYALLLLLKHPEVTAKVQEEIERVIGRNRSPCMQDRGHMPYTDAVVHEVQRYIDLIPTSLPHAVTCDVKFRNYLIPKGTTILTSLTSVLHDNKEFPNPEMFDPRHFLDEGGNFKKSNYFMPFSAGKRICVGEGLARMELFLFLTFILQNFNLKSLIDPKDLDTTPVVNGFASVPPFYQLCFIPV
Sequence of Cytochrome P450 4A11 (Q02928 whole entry): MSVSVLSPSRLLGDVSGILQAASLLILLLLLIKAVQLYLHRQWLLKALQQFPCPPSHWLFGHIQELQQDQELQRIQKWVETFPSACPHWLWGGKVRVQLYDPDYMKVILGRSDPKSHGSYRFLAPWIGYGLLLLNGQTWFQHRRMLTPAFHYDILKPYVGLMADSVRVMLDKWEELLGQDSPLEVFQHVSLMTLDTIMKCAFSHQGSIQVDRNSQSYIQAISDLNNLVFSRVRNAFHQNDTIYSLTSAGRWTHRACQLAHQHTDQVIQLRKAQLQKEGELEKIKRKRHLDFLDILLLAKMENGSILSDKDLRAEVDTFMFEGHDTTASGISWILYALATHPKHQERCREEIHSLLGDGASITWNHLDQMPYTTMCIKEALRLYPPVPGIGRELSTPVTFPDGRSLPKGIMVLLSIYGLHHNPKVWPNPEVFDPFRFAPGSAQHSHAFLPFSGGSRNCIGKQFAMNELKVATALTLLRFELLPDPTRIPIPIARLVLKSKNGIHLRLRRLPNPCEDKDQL
Sequence of Cytochrome P450 1A2 (P05177 whole entry): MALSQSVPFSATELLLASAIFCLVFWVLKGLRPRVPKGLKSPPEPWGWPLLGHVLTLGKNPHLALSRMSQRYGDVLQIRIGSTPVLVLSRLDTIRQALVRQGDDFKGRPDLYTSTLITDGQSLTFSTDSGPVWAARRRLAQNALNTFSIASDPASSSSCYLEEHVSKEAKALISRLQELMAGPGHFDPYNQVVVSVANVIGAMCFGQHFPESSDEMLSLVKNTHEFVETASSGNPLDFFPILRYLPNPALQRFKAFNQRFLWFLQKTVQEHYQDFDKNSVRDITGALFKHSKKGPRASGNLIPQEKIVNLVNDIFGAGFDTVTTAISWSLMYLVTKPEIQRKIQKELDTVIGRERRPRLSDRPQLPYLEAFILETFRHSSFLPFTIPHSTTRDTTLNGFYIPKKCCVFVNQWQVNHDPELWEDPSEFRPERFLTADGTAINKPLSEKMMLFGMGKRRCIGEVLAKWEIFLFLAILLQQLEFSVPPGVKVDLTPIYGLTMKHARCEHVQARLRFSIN
Sequence of Cytochrome P450 2C8 (P10632 whole entry): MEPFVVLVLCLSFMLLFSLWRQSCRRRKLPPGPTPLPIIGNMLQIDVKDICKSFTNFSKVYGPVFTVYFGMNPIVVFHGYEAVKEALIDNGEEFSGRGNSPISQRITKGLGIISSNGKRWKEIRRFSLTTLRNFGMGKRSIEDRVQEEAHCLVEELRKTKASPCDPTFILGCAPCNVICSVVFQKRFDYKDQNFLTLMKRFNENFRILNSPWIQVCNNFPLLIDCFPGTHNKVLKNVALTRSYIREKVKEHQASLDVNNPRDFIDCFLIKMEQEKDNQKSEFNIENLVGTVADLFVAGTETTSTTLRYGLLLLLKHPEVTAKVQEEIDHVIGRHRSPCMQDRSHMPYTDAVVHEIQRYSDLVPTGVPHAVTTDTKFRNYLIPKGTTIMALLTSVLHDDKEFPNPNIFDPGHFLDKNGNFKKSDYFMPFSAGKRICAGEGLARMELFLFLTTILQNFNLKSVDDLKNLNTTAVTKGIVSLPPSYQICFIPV
Sequence of Cytochrome P450 2C18 (P33260 whole entry): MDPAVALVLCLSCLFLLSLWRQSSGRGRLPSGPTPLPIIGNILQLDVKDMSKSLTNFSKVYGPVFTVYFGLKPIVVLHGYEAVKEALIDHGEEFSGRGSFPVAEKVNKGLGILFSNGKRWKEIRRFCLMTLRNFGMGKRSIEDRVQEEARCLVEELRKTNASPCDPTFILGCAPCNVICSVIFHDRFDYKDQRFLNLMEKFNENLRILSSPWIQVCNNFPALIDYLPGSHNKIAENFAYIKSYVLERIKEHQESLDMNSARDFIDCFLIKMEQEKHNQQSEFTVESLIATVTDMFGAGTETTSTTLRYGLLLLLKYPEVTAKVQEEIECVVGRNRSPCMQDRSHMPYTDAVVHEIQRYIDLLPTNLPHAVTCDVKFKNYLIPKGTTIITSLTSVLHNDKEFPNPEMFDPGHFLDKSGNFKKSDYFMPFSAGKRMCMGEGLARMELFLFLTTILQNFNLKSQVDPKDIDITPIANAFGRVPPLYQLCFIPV
Sequence of Cytochrome P450 3A5 (P20815 whole entry): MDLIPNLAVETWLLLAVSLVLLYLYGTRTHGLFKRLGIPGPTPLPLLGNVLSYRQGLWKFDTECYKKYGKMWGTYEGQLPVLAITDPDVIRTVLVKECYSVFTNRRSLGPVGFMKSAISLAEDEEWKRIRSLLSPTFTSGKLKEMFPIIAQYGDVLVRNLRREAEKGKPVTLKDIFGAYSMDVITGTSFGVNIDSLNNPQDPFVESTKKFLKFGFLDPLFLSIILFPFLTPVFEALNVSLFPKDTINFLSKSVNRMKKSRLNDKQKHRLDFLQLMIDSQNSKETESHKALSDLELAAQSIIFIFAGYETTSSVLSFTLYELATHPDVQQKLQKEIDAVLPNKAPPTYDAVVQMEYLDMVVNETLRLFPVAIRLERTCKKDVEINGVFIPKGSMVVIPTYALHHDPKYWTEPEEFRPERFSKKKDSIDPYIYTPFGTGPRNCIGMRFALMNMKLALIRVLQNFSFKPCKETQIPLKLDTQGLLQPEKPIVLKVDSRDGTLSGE

Drug metabolism (Liver microsome [1]): metabolite_detected
Drug metabolism (Liver microsome [2]): metabolite_detected
Drug metabolism (Cytochrome P450 3A5): metabolite_not_detected
Drug metabolism (Cytochrome P450 2C8): metabolite_not_detected
Drug metabolism (Cytochrome P450 2E1): metabolite_not_detected
Drug metabolism (Cytochrome P450 3A4): metabolite_detected
Drug metabolism (Cytochrome P450 2C18): metabolite_not_detected
Retention_time [3]: 41.9 min
Drug metabolism (Cytochrome P450 2C19): metabolite_not_detected
Drug metabolism (Cytochrome P450 4A11): metabolite_not_detected
CLint [4]: 10 µL/min/mg
Drug metabolism (Liver microsome [5]): metabolite_not_detected
Drug metabolism (Liver microsome [6]): metabolite_not_detected
CL (Cytochrome P450 4F2): 23 µL/min
Drug metabolism (Cytochrome P450 4F12 [7]): metabolite_not_detected
Retention_time [8]: 42.4 min
Drug metabolism [9]: metabolite_not_detected
Drug metabolism [10]: metabolite_not_detected
Drug metabolism (Cytochrome P450 1A2): metabolite_not_detected
Drug metabolism (Cytochrome P450 2C9): metabolite_not_detected
Drug metabolism (Cytochrome P450 3A7): metabolite_not_detected
Drug metabolism (Liver microsome [11]): metabolite_detected
Drug metabolism (Liver microsome [12]): metabolite_detected
Drug metabolism (Liver microsome [13]): metabolite_detected
Drug metabolism [14]: metabolite_not_detected
Drug metabolism (Cytochrome P450 4F12 [15]): metabolite_detected
Compound: CCCCCCCCc1ccc(CC[14C](N)(CO)CO)cc1.Cl
